In patent US10570184B2, “GLP-1/glucagon receptor co-agonists for medical use” (Novo Nordisk A/S, priority 2014, dated 2020):
Starred links: 1 amine or outer side, 2 acyl side, 3 side chain; linkers in the order of their positions; H or OH if unused. Non-standard residues stand in square brackets, D forms with d. Residues, ends and D or L forms follow the SMILES beside them. Groups on a side chain read outwards from the residue. *: point of attachment. C18 diacid = O=C(O)CCCCCCCCCCCCCCCCC(=O)*; γGlu = O=C(O)[C@H](CCC(=O)[*:2])N[*:1]; Ac4c = NC1(C(=O)O)CCC1; AEEA = NCCOCCOCC(=O)O; Aib = CC(C)(N)C(=O)O

Each molecule was assayed against T1, human GLP-1 receptor (Homo sapiens, UniProt P43220) (assay: Assay (I)(a) GLP-1 receptor activation, CRE luciferase reporter gene assay in BHK cells). Conditions: without presence of serum albumin; read-out: GLP-1R EC50 (pM) [Assay (I)(a)].
T1 construct: expressed in transfected cells; host or cells: membranes of BHK cells (parent BHKTS13), clone FCW467-12A
T1 sequence (P43220 24-463): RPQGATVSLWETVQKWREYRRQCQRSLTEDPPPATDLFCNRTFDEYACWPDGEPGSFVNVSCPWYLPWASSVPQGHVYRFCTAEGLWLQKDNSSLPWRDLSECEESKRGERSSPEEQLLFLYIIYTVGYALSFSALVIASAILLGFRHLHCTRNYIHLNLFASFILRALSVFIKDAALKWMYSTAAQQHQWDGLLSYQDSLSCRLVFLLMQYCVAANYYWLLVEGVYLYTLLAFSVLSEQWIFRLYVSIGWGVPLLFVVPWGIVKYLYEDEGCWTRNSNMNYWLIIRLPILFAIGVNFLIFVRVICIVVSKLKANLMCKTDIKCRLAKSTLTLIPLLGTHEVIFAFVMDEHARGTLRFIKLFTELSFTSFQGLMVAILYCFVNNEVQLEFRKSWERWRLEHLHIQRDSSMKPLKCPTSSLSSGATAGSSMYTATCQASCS
Format: cell-based
Outline: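 Stable BHK clone expressing human GLP-1 receptor with CRE-driven firefly luciferase, 5×10EE3 cells/well in medium with 2% ovalbumin and 0.2% Pluronic F-68. Compounds at 1×10EE-13 to 1×10EE-6 M final, 3 h at 37° C.; luminescence read, EC50 (pM) from four-parameter fit.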

EC50 [pM]	SMILES
3	CC[C@H](C)[C@H](NC(=O)[C@H](CC(C)C)NC(=O)[C@H](Cc1c[nH]c2ccccc12)NC(=O)[C@H](CCC(N)=O)NC(=O)[C@@H](NC(=O)[C@H](Cc1ccccc1)NC(=O)[C@H](CCC(=O)O)NC(=O)[C@H](CCCNC(=N)N)NC(=O)[C@H](C)NC(=O)[C@H](CCCNC(=N)N)NC(=O)[C@H](CCCNC(=N)N)NC(=O)[C@H](C)NC(=O)[C@H](CC(=O)O)NC(=O)[C@H](CC(C)C)NC(=O)[C@H](Cc1ccc(O)cc1)NC(=O)[C@H](CCCCN)NC(=O)[C@H](CO)NC(=O)[C@H](CC(C)C)NC(=O)[C@H](CC(=O)O)NC(=O)[C@H](CO)NC(=O)[C@@H](NC(=O)[C@H](Cc1ccccc1)NC(=O)[C@@H](NC(=O)CNC(=O)[C@H](CCC(N)=O)NC(=O)C(C)(C)NC(=O)[C@@H](N)Cc1c[nH]cn1)[C@@H](C)O)[C@@H](C)O)C(C)C)C(=O)N[C@@H](CO)C(=O)N[C@@H](CCCCNC(=O)CC[C@H](NC(=O)CC[C@H](NC(=O)COCCOCCNC(=O)COCCOCCNC(=O)CC[C@H](NC(=O)CCCCCCCCCCCCCCCCC(=O)O)C(=O)O)C(=O)O)C(=O)O)C(N)=O [Chem. 28, N^ε29-[(4S)-4-carboxy-4-[[(4S)-4-carboxy-4-[[2-[2-[2-[[2-[2-[2-[[(4S)-4-carboxy-4-(17-carboxyheptadecanoylamino)butanoyl]amino]ethoxy]ethoxy]acetyl]amino]ethoxy]ethoxy]acetyl]amino]butanoyl]amino]butanoyl]-[Aib2,Leu10,Ala16,Arg20,Glu21,Ile27,Ser28,Lys29]-Glucagon amide] (H-H[Aib]QGTFTSDLSKYLDARRAREFVQWLISK([γGlu-γGlu-AEEA-AEEA-γGlu-C18 diacid])-NH2; N-terminus assumed)
4	CC[C@H](C)[C@H](NC(=O)[C@H](CC(C)C)NC(=O)[C@H](Cc1c[nH]c2ccccc12)NC(=O)[C@H](CCC(N)=O)NC(=O)[C@@H](NC(=O)[C@H](Cc1ccccc1)NC(=O)[C@H](CCC(=O)O)NC(=O)[C@H](CCCNC(=N)N)NC(=O)[C@H](C)NC(=O)[C@H](CCCNC(=N)N)NC(=O)[C@H](CCCNC(=N)N)NC(=O)[C@H](CO)NC(=O)[C@H](CCC(=O)O)NC(=O)[C@H](CC(C)C)NC(=O)[C@H](Cc1ccc(O)cc1)NC(=O)[C@H](CCCCN)NC(=O)[C@H](CO)NC(=O)[C@H](CC(C)C)NC(=O)[C@H](CC(=O)O)NC(=O)[C@H](CO)NC(=O)[C@@H](NC(=O)[C@H](Cc1ccccc1)NC(=O)[C@@H](NC(=O)CNC(=O)[C@H](CCC(N)=O)NC(=O)C1(NC(=O)[C@@H](N)Cc2c[nH]cn2)CCC1)[C@@H](C)O)[C@@H](C)O)C(C)C)C(=O)N[C@@H](CCCCNC(=O)COCCOCCNC(=O)COCCOCCNC(=O)CC[C@H](NC(=O)CC[C@H](NC(=O)CCCCCCCCCCCCCCCCC(=O)O)C(=O)O)C(=O)O)C(=O)N[C@H](C(N)=O)[C@@H](C)O [Chem. 18, N^ε28-[2-[2-[2-[[2-[2-[2-[[(4S)-4-carboxy-4-[[(4S)-4-carboxy-4-(17-carboxyheptadecanoylamino)butanoyl]amino]butanoyl]amino]ethoxy]ethoxy]acetyl]amino]ethoxy]ethoxy]acetyl]-[Acb2,Leu10,Glu15,Arg20,Glu21,Ile27,Lys28]-Glucagon amide] (H-H[Ac4c]QGTFTSDLSKYLESRRAREFVQWLIK([AEEA-AEEA-γGlu-γGlu-C18 diacid])T-NH2)
4	CC[C@H](C)[C@H](NC(=O)[C@H](CC(C)C)NC(=O)[C@H](Cc1c[nH]c2ccccc12)NC(=O)[C@H](CCC(N)=O)NC(=O)[C@@H](NC(=O)[C@H](Cc1ccccc1)NC(=O)[C@H](CC(=O)O)NC(=O)[C@H](CCCNC(=N)N)NC(=O)[C@H](C)NC(=O)[C@H](CCCNC(=N)N)NC(=O)[C@H](CCCNC(=N)N)NC(=O)[C@H](CO)NC(=O)[C@H](CCC(=O)O)NC(=O)[C@H](CC(C)C)NC(=O)[C@H](Cc1ccc(O)cc1)NC(=O)[C@H](CCCNC(=N)N)NC(=O)[C@H](CO)NC(=O)[C@H](Cc1ccc(O)cc1)NC(=O)[C@H](CC(=O)O)NC(=O)[C@H](CO)NC(=O)[C@@H](NC(=O)[C@H](Cc1ccccc1)NC(=O)[C@@H](NC(=O)CNC(=O)[C@H](CCC(N)=O)NC(=O)C(C)(C)NC(=O)[C@@H](N)Cc1c[nH]cn1)[C@@H](C)O)[C@@H](C)O)C(C)C)C(=O)N[C@@H](CCCCNC(=O)CC[C@H](NC(=O)COCCOCCNC(=O)CC[C@H](NC(=O)COCCOCCNC(=O)CC[C@H](NC(=O)COCCOCCNC(=O)CC[C@H](NC(=O)CC[C@H](NC(=O)CCCCCCCCCCCCCCCCC(=O)O)C(=O)O)C(=O)O)C(=O)O)C(=O)O)C(=O)O)C(=O)N[C@H](C(N)=O)[C@@H](C)O [Chem. 37, N^28-[(4S)-4-carboxy-4-[[2-[2-[2-[[(4S)-4-carboxy-4-[[2-[2-[2-[[(4S)-4-carboxy-4-[[2-[2-[2-[[(4S)-4-carboxy-4-[[(4S)-4-carboxy-4-(17-carboxyheptadecanoylamino)butanoyl]amino]butanoyl]amino]ethoxy]ethoxy]acetyl]amino]butanoyl]amino]ethoxy]ethoxy]acetyl]amino]butanoyl]amino]ethoxy]ethoxy]acetyl]amino]butanoyl]-[Aib2,Arg12,Glu15,Arg20,Ile27,Lys28]-Glucagon amide] (H-H[Aib]QGTFTSDYSRYLESRRARDFVQWLIK([γGlu-AEEA-γGlu-AEEA-γGlu-AEEA-γGlu-γGlu-C18 diacid])T-NH2; N-terminus assumed)
5	CC[C@H](C)[C@H](NC(=O)[C@H](CC(C)C)NC(=O)[C@H](Cc1c[nH]c2ccccc12)NC(=O)[C@H](CCC(N)=O)NC(=O)[C@@H](NC(=O)[C@H](Cc1ccccc1)NC(=O)[C@H](CCC(=O)O)NC(=O)[C@H](CCCNC(=N)N)NC(=O)[C@H](C)NC(=O)[C@H](CCCNC(=N)N)NC(=O)[C@H](CCCNC(=N)N)NC(=O)[C@H](CO)NC(=O)[C@H](CCC(=O)O)NC(=O)[C@H](CC(C)C)NC(=O)[C@H](Cc1ccc(O)cc1)NC(=O)[C@H](CCCCN)NC(=O)[C@H](CO)NC(=O)[C@H](CC(C)C)NC(=O)[C@H](CC(=O)O)NC(=O)[C@H](CO)NC(=O)[C@@H](NC(=O)[C@H](Cc1ccccc1)NC(=O)[C@@H](NC(=O)CNC(=O)[C@H](CCC(N)=O)NC(=O)C1(NC(=O)[C@@H](N)Cc2c[nH]cn2)CCC1)[C@@H](C)O)[C@@H](C)O)C(C)C)C(=O)N[C@@H](CCCCNC(=O)CNC(=O)[C@H](CO)NC(=O)[C@H](CCC(=O)O)NC(=O)CNC(=O)[C@H](CO)NC(=O)CC[C@H](NC(=O)CC[C@H](NC(=O)CCCCCCCCCCCCCCCCC(=O)O)C(=O)O)C(=O)O)C(=O)N[C@H](C(N)=O)[C@@H](C)O [Chem. 16, N^ε28-[2-[[(2S)-2-[[(2S)-4-carboxy-2-[[2-[[(2S)-2-[[(4S)-4-carboxy-4-[[(4S)-4-carboxy-4-(17-carboxyheptadecanoylamino)butanoyl]amino]butanoyl]amino]-3-hydroxypropanoyl]amino]acetyl]amino]butanoyl]amino]-3-hydroxypropanoyl]amino]acetyl]-[Acb2,Leu10,Glu15,Arg20,Glu21,Ile27,Lys28]-Glucagon amide] (HELM PEPTIDE1{H.[O=C(C1(N[*:1])CCC1)[*:2]].Q.G.T.F.T.S.D.L.S.K.Y.L.E.S.R.R.A.R.E.F.V.Q.W.L.I.K.T.[am]}|PEPTIDE2{[O=C(O)CCCCCCCCCCCCCCCCC(=O)[*:2]].[gGlu].[gGlu].S.G.E.S.G}$PEPTIDE1,PEPTIDE2,28:R3-8:R2$$$V2.0)
2	CC[C@H](C)[C@H](NC(=O)[C@H](CC(C)C)NC(=O)[C@H](Cc1c[nH]c2ccccc12)NC(=O)[C@H](CCC(N)=O)NC(=O)[C@@H](NC(=O)[C@H](Cc1ccccc1)NC(=O)[C@H](CCC(=O)O)NC(=O)[C@H](CCC(N)=O)NC(=O)[C@H](C)NC(=O)[C@H](CCCNC(=N)N)NC(=O)[C@H](CCCNC(=N)N)NC(=O)[C@H](CO)NC(=O)[C@H](CCC(=O)O)NC(=O)[C@H](CC(C)C)NC(=O)[C@H](Cc1ccc(O)cc1)NC(=O)[C@H](CCCCN)NC(=O)[C@H](CO)NC(=O)[C@H](CC(C)C)NC(=O)[C@H](CC(=O)O)NC(=O)[C@H](CO)NC(=O)[C@@H](NC(=O)[C@H](Cc1ccccc1)NC(=O)[C@@H](NC(=O)CNC(=O)[C@H](CCC(N)=O)NC(=O)C1(NC(=O)[C@@H](N)Cc2c[nH]cn2)CCC1)[C@@H](C)O)[C@@H](C)O)C(C)C)C(=O)N[C@@H](CCCCNC(=O)CC[C@H](NC(=O)COCCOCCNC(=O)COCCOCCNC(=O)CC[C@H](NC(=O)CC[C@H](NC(=O)CCCCCCCCCCCCCCCCC(=O)O)C(=O)O)C(=O)O)C(=O)O)C(=O)N[C@H](C(N)=O)[C@@H](C)O [Chem. 38, N^ε28-[(4S)-4-carboxy-4-[[2-[2-[2-[[2-[2-[2-[[(4S)-4-carboxy-4-[[(4S)-4-carboxy-4-(17-carboxyheptadecanoylamino)butanoyl]amino]butanoyl]amino]ethoxy]ethoxy]acetyl]amino]ethoxy]ethoxy]acetyl]amino]butanoyl]-[Acb2,Leu10,Glu15,Glu21,Ile27,Lys28]-Glucagon amide] (H-H[Ac4c]QGTFTSDLSKYLESRRAQEFVQWLIK([γGlu-AEEA-AEEA-γGlu-γGlu-C18 diacid])T-NH2; N-terminus assumed)
